Results reported in the NIST ThermoML archive (doi:10.1021/acs.jced.8b00554).
Numbers after ± are expanded uncertainties.

Experiment: xn = mol fraction of the nth substance listed
Details: 313.15 K, Liquid, Vibrating tube method

CCCCCCCC [octane] + CCCO
Details | mass density [kg/m3]
100 kPa, x2 = 0.1631 | 693.18 ± 4.4
100 kPa, x2 = 0.2111 | 695.76 ± 4.5
100 kPa, x2 = 0.3158 | 701.99 ± 4.5
100 kPa, x2 = 0.4411 | 711 ± 4.5
100 kPa, x2 = 0.7301 | 740.14 ± 4.7
100 kPa, x2 = 0.8823 | 763.46 ± 4.9
1000 kPa, x2 = 0.1631 | 694.31 ± 4.5
1000 kPa, x2 = 0.4411 | 712.19 ± 4.6
1010 kPa, x2 = 0.2111 | 696.95 ± 4.5
1010 kPa, x2 = 0.3158 | 703.21 ± 4.5
1010 kPa, x2 = 0.7301 | 741.33 ± 4.8
1010 kPa, x2 = 0.8823 | 764.37 ± 4.9
2000 kPa, x2 = 0.7301 | 742.25 ± 4.8
2010 kPa, x2 = 0.1631 | 695.26 ± 4.5
2010 kPa, x2 = 0.2111 | 697.87 ± 4.5
2010 kPa, x2 = 0.3158 | 704.14 ± 4.5
2010 kPa, x2 = 0.4411 | 713.12 ± 4.6
2010 kPa, x2 = 0.8823 | 765.24 ± 4.9
3000 kPa, x2 = 0.2111 | 698.81 ± 4.5
3000 kPa, x2 = 0.4411 | 714.05 ± 4.6
3000 kPa, x2 = 0.7301 | 743.18 ± 4.8
3010 kPa, x2 = 0.3158 | 705.04 ± 4.5
3020 kPa, x2 = 0.1631 | 696.19 ± 4.5
3020 kPa, x2 = 0.8823 | 766.13 ± 4.9
4000 kPa, x2 = 0.2111 | 699.72 ± 4.5
4000 kPa, x2 = 0.4411 | 714.95 ± 4.6
4010 kPa, x2 = 0.3158 | 705.98 ± 4.5
4010 kPa, x2 = 0.7301 | 744.05 ± 4.8
4020 kPa, x2 = 0.1631 | 697.09 ± 4.5
4020 kPa, x2 = 0.8823 | 767 ± 4.9
5000 kPa, x2 = 0.1631 | 698.01 ± 4.5
5000 kPa, x2 = 0.3158 | 706.86 ± 4.5
5000 kPa, x2 = 0.8823 | 767.9 ± 4.9
5010 kPa, x2 = 0.2111 | 700.64 ± 4.5
5010 kPa, x2 = 0.7301 | 744.95 ± 4.8
5020 kPa, x2 = 0.4411 | 715.86 ± 4.6
6010 kPa, x2 = 0.2111 | 701.53 ± 4.5
6010 kPa, x2 = 0.4411 | 716.76 ± 4.6
6010 kPa, x2 = 0.7301 | 745.83 ± 4.8
6010 kPa, x2 = 0.8823 | 768.74 ± 4.9
6020 kPa, x2 = 0.1631 | 698.89 ± 4.5
6020 kPa, x2 = 0.3158 | 707.76 ± 4.5
7000 kPa, x2 = 0.3158 | 708.66 ± 4.5
7010 kPa, x2 = 0.7301 | 746.74 ± 4.8
7020 kPa, x2 = 0.1631 | 699.79 ± 4.5
7020 kPa, x2 = 0.2111 | 702.4 ± 4.5
7020 kPa, x2 = 0.4411 | 717.65 ± 4.6
7020 kPa, x2 = 0.8823 | 769.63 ± 4.9
8000 kPa, x2 = 0.1631 | 700.66 ± 4.5
8010 kPa, x2 = 0.3158 | 709.55 ± 4.5
8010 kPa, x2 = 0.4411 | 718.55 ± 4.6
8010 kPa, x2 = 0.7301 | 747.6 ± 4.8
8010 kPa, x2 = 0.8823 | 770.46 ± 4.9
8020 kPa, x2 = 0.2111 | 703.3 ± 4.5
9000 kPa, x2 = 0.3158 | 710.41 ± 4.5
9000 kPa, x2 = 0.4411 | 719.39 ± 4.6
9000 kPa, x2 = 0.7301 | 748.46 ± 4.8
9010 kPa, x2 = 0.1631 | 701.54 ± 4.5
9020 kPa, x2 = 0.2111 | 704.17 ± 4.5
9020 kPa, x2 = 0.8823 | 771.29 ± 4.9
10000 kPa, x2 = 0.2111 | 705.02 ± 4.5
10010 kPa, x2 = 0.1631 | 702.41 ± 4.5
10010 kPa, x2 = 0.4411 | 720.29 ± 4.6
10010 kPa, x2 = 0.7301 | 749.32 ± 4.8
10020 kPa, x2 = 0.3158 | 711.31 ± 4.6
10020 kPa, x2 = 0.8823 | 772.16 ± 5
11000 kPa, x2 = 0.1631 | 703.29 ± 4.5
11000 kPa, x2 = 0.8823 | 772.97 ± 5
11010 kPa, x2 = 0.3158 | 712.17 ± 4.6
11010 kPa, x2 = 0.7301 | 750.16 ± 4.8
11020 kPa, x2 = 0.2111 | 705.91 ± 4.5
11020 kPa, x2 = 0.4411 | 721.14 ± 4.6
12010 kPa, x2 = 0.1631 | 704.11 ± 4.5
12010 kPa, x2 = 0.2111 | 706.77 ± 4.5
12010 kPa, x2 = 0.3158 | 712.99 ± 4.6
12010 kPa, x2 = 0.7301 | 751 ± 4.8
12020 kPa, x2 = 0.4411 | 722 ± 4.6
12020 kPa, x2 = 0.8823 | 773.81 ± 5
13000 kPa, x2 = 0.4411 | 722.85 ± 4.6
13000 kPa, x2 = 0.8823 | 774.61 ± 5
13010 kPa, x2 = 0.1631 | 704.97 ± 4.5
13010 kPa, x2 = 0.3158 | 713.85 ± 4.6
13010 kPa, x2 = 0.7301 | 751.83 ± 4.8
13020 kPa, x2 = 0.2111 | 707.6 ± 4.5
14010 kPa, x2 = 0.3158 | 714.67 ± 4.6
14020 kPa, x2 = 0.1631 | 705.8 ± 4.5
14020 kPa, x2 = 0.2111 | 708.41 ± 4.5
14020 kPa, x2 = 0.4411 | 723.68 ± 4.6
14020 kPa, x2 = 0.7301 | 752.64 ± 4.8
14020 kPa, x2 = 0.8823 | 775.41 ± 5
15000 kPa, x2 = 0.4411 | 724.48 ± 4.6
15010 kPa, x2 = 0.2111 | 709.26 ± 4.5
15010 kPa, x2 = 0.3158 | 715.49 ± 4.6
15010 kPa, x2 = 0.7301 | 753.46 ± 4.8
